Source: publication PMC2950628 (Journal of medicinal chemistry, 2008)

Tested on: not listed separately
Test: Solubility in D2O confirmed by NMR
Format: physicochemical
Settings: not given

Compound | solubility
CCCCC(=O)c1ccc(OC)c(OC2CCNCC2)c1 [5i, 1-[4-Methoxy-3-(piperidin-4-yloxy)phenyl]pentan-1-one] | ≤ 800 µM

Same assay, conditions: NMR study conditions

Compound | solubility / behaviour in NMR sample
CCCC(=O)c1ccc(OC(F)F)c(Oc2ccccn2)c1 [5zi, 1-[4-Difluoromethoxy-3-(pyridin-2-yloxy)phenyl]butan-1-one] | solubility and nonspecific binding problems

Tested on: PDE4
Test: not given
Settings: Table 5, external test set s1–s9 from literature ref 19; cited from earlier work

Compound | actual pIC50
COc1ccc(C(=O)Nc2ccccc2C(F)(F)F)cc1OC1CCCC1 [s2] | 5.51
COc1ccc(C(=O)Nc2c(F)cccc2F)cc1O [s4] | 4.43
COc1ccc(C(=O)Nc2c(F)cccc2F)cc1OC1CCCC1 [s6] | 7.15
COc1ccc(C(=O)Nc2ccccc2Cl)cc1OC [s7] | 6.19
COc1ccc(C(=O)Nc2ccccc2F)cc1OC1CCCC1 [s1] | 4.97
COc1ccc(C(=S)Nc2c(Cl)cccc2Cl)cc1OC1CCCC1 [s9] | 6.70
COc1ccc(C(=O)Nc2c(Cl)cccc2Cl)cc1OC1CCCC1 [s3] | 7.55
COc1ccc(C(=O)Nc2c(F)cccc2F)cc1OC1CCCCC1 [s5] | 6.40
CCCOc1cc(C(=O)Nc2c(F)cccc2F)ccc1OC [s8] | 5.80
